Assay results from patent publication US6221865A, “Inhibitors of protein isoprenyl transferases” (priority 1998, dated 2001).
Counter-ions that a name gives are not always drawn. Like-named read-outs stand apart in the source and are kept apart here. Blank lines part the entries; values can stand above or below the compound they belong to.

Target: T1, protein farnesyltransferase (Rattus norvegicus, UniProt Q02293+Q04631)
T1 construct: The enzyme is purified according to Reiss, Y., et al., Cell, 62: 81-88 (1990), utilizing steps one through three; from tissue; host or cells: rat brain
Assay: Inhibition of farnesyltransferase (scintillation proximity assay, rat brain enzyme, biotin-K Ras B fragment substrate)
Format: biochemical
Details: for % inhibition of farnesyltransferase at 1 × 10^-6 M / inhibition at 1 µM: 1 × 10^-6 M (Table 2); for inhibition at 1 µM: read-out: % inhibition of farnesyltransferase at 1 × 10^-6 M; for % inhibition of farnesyltransferase at 1 × 10^-5 M: 1 × 10^-5 M (Table 1)
Description: The ability of the compounds of the invention to inhibit protein farnesyltransferase or protein geranylgeranyltransferase can be measured according to the method of Moores, et al., J. Biol. Chem. 266: 14603 (1991) or the method of Vogt, et al., J. Biol. Chem. 270:660-664 (1995). In addition, procedures for determination of the inhibition of farnesylation of the oncogene protein Ras are described by Goldstein, et al., J. Biol. Chem., 266:15575-15578 (1991) and by Singh in U.S. Pat. No. 5,245,061.
In addition, in vitro inhibition of protein farnesyltransferase may be measured by the following procedure. Rat brain protein farnesyltransferase activity is measured using an Amersham Life Science commercial scintillation proximity assay kit and substituting a biotin-K Ras B fragment (biotin-[…]Ble-Met-CO2 H), […] final concentration, for the biotin-lamin substrate provided by Amersham. The enzyme is purified according to Reiss, Y., et al., Cell, 62: 81-88 (1990), utilizing steps one through three.
The % inhibition of protein farnesyltransferase was determined for representative compounds of the invention.

[1] = read-out: % inhibition at 0.01 μM (**), Table 6, ** = 0.01 μM (footnote), title prints 0.01 mM

T1 sequence (Q02293 whole entry, one chain of several): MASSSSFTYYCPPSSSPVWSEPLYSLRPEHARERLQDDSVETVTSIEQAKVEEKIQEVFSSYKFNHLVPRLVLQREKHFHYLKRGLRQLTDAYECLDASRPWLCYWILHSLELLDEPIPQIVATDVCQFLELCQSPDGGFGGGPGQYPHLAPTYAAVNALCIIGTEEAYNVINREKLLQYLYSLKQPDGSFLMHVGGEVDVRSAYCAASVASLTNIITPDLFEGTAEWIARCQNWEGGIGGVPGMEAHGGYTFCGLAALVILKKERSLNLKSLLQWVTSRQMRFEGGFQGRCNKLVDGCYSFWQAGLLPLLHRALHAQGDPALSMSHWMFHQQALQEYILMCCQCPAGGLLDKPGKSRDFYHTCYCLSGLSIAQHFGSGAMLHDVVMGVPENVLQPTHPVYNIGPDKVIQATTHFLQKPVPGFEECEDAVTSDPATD

inhibition at 0.01 µM [1]: 79%
SMILES: CCCCP(=O)(Cc1ccc(C(=O)N[C@@H](CCSC)C(=O)O)c(-c2ccccc2C)c1)CC1CCCCC1 (some centres unmarked) [Example 1213, N-[4-((Cylohexylmethyl)butyl(oxophosphinyl)methyl)-2-(2-methylphenyl)benzoyl]methionine]

% inhibition of farnesyltransferase at 1 × 10^-6 M: 95%
SMILES: CSCC[C@H](NC(=O)c1ccc(CN[C@H](CO)Cc2ccccc2)cc1-c1ccccc1C)C(=O)O [Example 727]

% inhibition of farnesyltransferase at 1 × 10^-7 M (1 × 10^-7 M (Table 3)): 93%
SMILES: CSCC[C@H](NC(=O)c1ccc(COCC2CCC(c3ccc(Cl)cc3)O2)cc1-c1ccccc1C)C(=O)O (some centres unmarked) [Example 822]

% inhibition of farnesyltransferase at 1 × 10^-7 M (1 × 10^-7 M (Table 3)): 85%
SMILES: CCCCN(CCCC)C(=O)CNCc1ccc(C(=O)N[C@@H](CCSC)C(=O)O)c(-c2ccccc2C)c1 [Example 912]

% inhibition of farnesyltransferase at 1 × 10^-6 M: 94%
SMILES: CSCC[C@H](NC(=O)c1ccc(CN(Cc2ccccc2)Cc2ccccc2)cc1-c1ccccc1C)C(=O)O [Example 512]

inhibition at 0.01 µM [1]: 73%
SMILES: CSCC[C@H](NC(=O)c1ccc(C/C(=C\c2cncs2)COc2cc(F)cc(F)c2)cc1-c1ccccc1C)C(=O)O [Example 1163, N-{4-[E-2-(3,5-diflourophenoxy)methyl-3-(thiazol-5-yl)prop-2-enyl]-2-(2-methylphenyl)benzoyl}methionine Lithium Salt]

% inhibition of farnesyltransferase at 1 × 10^-7 M (1 × 10^-7 M (Table 3)): 89%
SMILES: CSCC[C@H](NC(=O)c1ccc(CNCCc2c[nH]c3ccccc23)cc1-c1ccccc1C)C(=O)O [Example 519]

inhibition at 0.01 µM (read-out: % inhibition of farnesyltransferase at 1 × 10^-8 M, 1 × 10^-8 M (Table 4)): 85%
SMILES: CSCC[C@H](NC(=O)c1ccc(CCc2ccc(Oc3ccc(Cl)cc3)cc2)cc1-c1ccccc1C)C(=O)O [Example 860, N-[4-(2-(4-(4-chlorophenoxy)phenyl)ethyl)-2-(2-methylphenyl)benzoyl]methionine]

% inhibition of farnesyltransferase at 1 × 10^-8 M (1 × 10^-8 M (Table 4)): 86%
SMILES: CCSC[C@H](CC(C)C)NCc1ccc(C(=O)N[C@@H](CCSC)C(=O)O)c(-c2ccccc2C)c1 [Example 905]

inhibition at 0.1 µM (read-out: % inhibition of farnesyltransferase at 1 × 10^-7 M, 1 × 10^-7 M (Table 3)): 90%
SMILES: CSCC[C@H](NC(=O)c1ccc(CN2CCC[C@@H]2COCc2ccccc2)cc1-c1ccccc1C)C(=O)O [Example 993, N-[4-(2-benzyloxymethylpyrrolidin-1-ylmethyl)-2-(2-methylphenyl)benzoyl]methionine]

% inhibition of farnesyltransferase at 1 × 10^-5 M: 75%
SMILES: C=C[C@@H](CC1CCCCC1)NCc1ccc(C(=O)N[C@@H](CCSC)C(=O)O)c(-c2ccccc2)c1 [Example 664]

inhibition at 1 µM: 23%
SMILES: CSCC[C@H](NC(=O)c1ccc(CN2CCN(C)CC2)cc1-c1ccccc1)C(=O)O [Example 289, [4-(4-methylpiperazinylmethyl)-2-phenylbenzoyl]methionine]

% inhibition of farnesyltransferase at 1 × 10^-5 M: 67%
SMILES: CSCC[C@H](NC(=O)c1ccc(CN[C@H](CC2CCCCC2)[C@H](O)[C@H](O)CC(C)C)cc1-c1ccccc1)C(=O)O [Example 715]

inhibition at 1 µM: 98%
SMILES: CSCC[C@H](NC(=O)c1ccc(CCCCC2CCCCC2)cc1-c1ccccc1C)C(=O)O [Example 478, N-[4-(4-cyclohexylbutyl)-2-(2-methyphenyl)benzoyl]methionine sodium salt]

inhibition at 0.01 µM [1]: 82%
SMILES: CSCC[C@H](NC(=O)c1ccc(Cc2nnnn2CC2CCCCC2)cc1-c1ccccc1C)C(=O)O [Example 1100, N-[4-(1-cyclohexylmethyltetrazol-5-ylmethyl)-2-(2-methylphenyl)benzoyl]methionine]

% inhibition of farnesyltransferase at 1 × 10^-8 M (1 × 10^-8 M (Table 4)): 91%
SMILES: CSCC[C@H](NC(=O)c1ccc(CO[C@H](CSC(C)(C)C)CC2CCCCC2)cc1-c1ccccc1C)C(=O)O [Example 883]

% inhibition of farnesyltransferase at 1 × 10^-6 M: 99%
SMILES: CCOC[C@H](CC1CCCCC1)OCc1ccc(C(=O)N[C@@H](CCSC)C(=O)O)c(-c2ccccc2C)c1 [Example 525]

inhibition at 1 µM: 26%
SMILES: CSCC[C@H](NC(=O)c1ccc(CN(C(C)C)C2(CC3CCCCC3)CCC2)cc1-c1ccccc1C)C(=O)O [Example 332]

% inhibition of farnesyltransferase at 1 × 10^-8 M (1 × 10^-8 M (Table 4)): 97%
SMILES: CSCC[C@H](NC(=O)c1ccc(CN[C@H](CSc2ccccc2C)CC2CCCCC2)cc1-c1ccccc1C)C(=O)O [Example 767]

inhibition at 1 µM: 93%
SMILES: Cc1ccccc1-c1cc(CN(C2CC2)C(C)(C)CC2CCCCC2)ccc1C(=O)N[C@@H](CCS(C)(=O)=O)C(=O)O [Example 320]

% inhibition of farnesyltransferase at 1 × 10^-6 M: 39%
SMILES: CSCC[C@H](NC(=O)c1ccc(CNc2ccc(N3CCCCC3)cc2)cc1-c1ccccc1)C(=O)O [Example 697]

% inhibition of farnesyltransferase at 1 × 10^-5 M: 43%
SMILES: CSCC[C@H](NC(=O)c1ccc(CNCCC2CCCCC2)cc1-c1ccccc1)C(=O)O [Example 663]

% inhibition of farnesyltransferase at 1 × 10^-7 M (1 × 10^-7 M (Table 3)): 84%
SMILES: CSCC[C@H](NC(=O)c1ccc(CSc2ncnc3[nH]ncc23)cc1-c1ccccc1C)C(=O)O [Example 746]

inhibition at 0.01 µM [1]: 87%
SMILES: CSCC[C@H](NC(=O)c1ccc(Cc2nnnn2Cc2ccccc2)cc1-c1ccccc1C)C(=O)O [Example 1099, N-[4-(1-benzyltetrazol-5-ylmethyl)-2-(2-methylphenyl)benzoyl]methionine]

% inhibition of farnesyltransferase at 1 × 10^-7 M (1 × 10^-7 M (Table 3)): 60%
SMILES: CSCC[C@H](NC(=O)c1ccc(CSc2nc3cc(C)ccc3[nH]2)cc1-c1ccccc1C)C(=O)O [Example 733]

The next lines start with the compound.

SMILES: CSCC[C@H](NC(=O)c1ccc(COC(Cc2ccccc2)Cc2ccccc2)cc1-c1ccccc1C)C(=O)[O-].[Li+] [Example 522]
% inhibition of farnesyltransferase at 1 × 10^-7 M (1 × 10^-7 M (Table 3)): 93%

SMILES: COc1ccccc1CNCc1ccc(C(=O)N[C@@H](CCSC)C(=O)O)c(-c2ccccc2)c1 [Example 650]
% inhibition of farnesyltransferase at 1 × 10^-6 M: 68%

SMILES: CSCC[C@H](NC(=O)c1ccc(COCc2ccc(Br)o2)cc1-c1ccccc1C)C(=O)[O-].[Li+] [Example 434]
% inhibition of farnesyltransferase at 1 × 10^-7 M (1 × 10^-7 M (Table 3)): 93%

SMILES: CSCC[C@H](NC(=O)c1ccc(COCc2occc2-c2ccc(Cl)cc2)cc1-c1ccccc1C)C(=O)[O-].[Li+] [Example 827]
% inhibition of farnesyltransferase at 1 × 10^-8 M (1 × 10^-8 M (Table 4)): 77%

SMILES: CSCC[C@H](NC(=O)c1ccc(COCc2ccc(-c3ccc(N(C)C)cc3)o2)cc1-c1ccccc1C)C(=O)O [Example 821]
% inhibition of farnesyltransferase at 1 × 10^-8 M (1 × 10^-8 M (Table 4)): 75%

SMILES: CSCC[C@H](NC(=O)c1ccc(COCc2cnc(-c3ccccc3Cl)o2)cc1-c1ccccc1C)C(=O)[O-].[Li+] [Example 892]
% inhibition of farnesyltransferase at 1 × 10^-8 M (1 × 10^-8 M (Table 4)): 59%

SMILES: CSCC[C@H](NC(=O)c1ccc(COCc2ccc(-c3ccc(F)cc3)o2)cc1-c1cccc2ccccc12)C(=O)[O-].[Li+] [Example 868]
% inhibition of farnesyltransferase at 1 × 10^-6 M: 89%

SMILES: COc1cccc(COCc2ccc(C(=O)N[C@@H](CCSC)C(=O)[O-])c(-c3ccccc3C)c2)c1.[Li+] [Example 932]
% inhibition of farnesyltransferase at 1 × 10^-8 M (1 × 10^-8 M (Table 4)): 60%

SMILES: CSCC[C@@H](C(=O)[O-])N(C)C(=O)c1ccc(COCCCC2CCCCC2)cc1-c1ccccc1C.[Li+] [Example 597]
% inhibition of farnesyltransferase at 1 × 10^-7 M (1 × 10^-7 M (Table 3)): 75%

SMILES: CSCC[C@H](NC(=O)c1ccc(CCc2cccc3ccccc23)cc1-c1ccccc1C)C(=O)O [Example 467, N-[4-(2-naphth-1-ylethyl)-2-(2-methylphenyl)benzoyl]methionine lithium salt]
inhibition at 1 µM: 97%

SMILES: CSCC[C@H](NC(=O)c1ccc(NCCO)cc1-c1ccccc1)C(=O)O [Example 502]
% inhibition of farnesyltransferase at 1 × 10^-6 M: 24%

SMILES: CSCC[C@H](NC(=O)c1ccc(COCCc2ccc3ccccc3c2)cc1-c1ccccc1C)C(=O)[O-].[Li+] [Example 593]
% inhibition of farnesyltransferase at 1 × 10^-7 M (1 × 10^-7 M (Table 3)): 86%

SMILES: CSCC[C@H](NC(=O)c1ccc(COCCC2CCCCC2)cc1-c1ccccc1C)C(=O)[O-].[Li+] [Example 594]
% inhibition of farnesyltransferase at 1 × 10^-7 M (1 × 10^-7 M (Table 3)): 95%

SMILES: CSCC[C@H](NC(=O)c1ccc(COCc2ccccc2)cc1-c1ccccc1)C(=O)O [Example 575]
% inhibition of farnesyltransferase at 1 × 10^-6 M: 70%

SMILES: CSCC[C@H](NC(=O)c1ccc(NC(=O)c2cccc(N(C)C)c2)cc1-c1ccccc1)C(=O)O [Example 752]
% inhibition of farnesyltransferase at 1 × 10^-5 M: 58%

SMILES: CSCC[C@H](NC(=O)c1ccc(NC[C@@H]2CSCN2)cc1-c1ccccc1)C(=O)O.Cl [Example 166]
% inhibition of farnesyltransferase at 1 × 10^-6 M: 97%

SMILES: CSCC[C@H](NC(=O)c1ccc(N2CC(=O)NNC2=O)cc1-c1ccccc1)C(=O)O [Example 224]
inhibition at 1 µM: 41%

SMILES: CSCC[C@H](NC(=O)c1ccc(CN(Cc2ccccc2)Cc2ccccc2)cc1-c1ccccc1)C(=O)O [Example 834]
% inhibition of farnesyltransferase at 1 × 10^-6 M: 55%

SMILES: CSCC[C@H](NC(=O)c1ccc(NC(=O)C2=C(C(F)(F)F)C=CNC2)cc1-c1ccccc1)C(=O)O [Example 283]
% inhibition of farnesyltransferase at 1 × 10^-6 M: 98%
